# Source: patent US6897211B2, “Thienodibenzoazulene compounds as tumor necrosis factor inhibitors” (Pliva-Istrazivacki Institut d.o.o., priority 2000, dated 2005)
# Key:
# [1] = system: secretion of TNF-α and IL-1; assay: investigated tests: TNF-α and IL-1 secretion in human PBMC and mouse peritoneal macrophages in vitro, LPS-induced TNF-α/IL-1 secretion in mice, writhing test, LPS-induced shock in mice; conditions: tests not specified per compound; active = IC-50 20 μM or lower (human PBMC), 10 μM or lower (mouse macrophages), 30% or higher TNF-α inhibition at 10 mg/kg p.o., analgetic activity same or better than acetyl salicylic acid, 40% or better survival at 30 mg/kg
SMILES,melting point [°C],activity in at least two investigated tests [1]
CN(C)CCOCc1cc2c(s1)-c1ccccc1Oc1ccccc1-2.Cl,131 to 133,
Cl.c1ccc2c(c1)Oc1ccccc1-c1sc(COCCN3CCOCC3)cc1-2,157 to 158,
Cl.c1ccc2c(c1)Oc1ccccc1-c1sc(COCCN3CCCCC3)cc1-2,117 to 123,
"CN(C)CCCOCc1cc2c(s1)-c1ccccc1Oc1ccccc1-2.Cl [Example 1, Dimethyl-[3-(8-oxa-1-thia-dibenzo[e,h]azulene-2-ylmethoxy)-propyl]-amine hydrochloride]",120 to 122,activity in at least two investigated tests
"Cl.c1ccc2c(c1)Oc1ccccc1-c1sc(COCCN3CCCC3)cc1-2 [Example 5, 1-[2-(8-oxa-1-thia-dibenzo[e,h]azulene-2-ylmethoxy)-ethyl]-pyrrolidine hydrochloride]",,activity in at least two investigated tests
"CN(C)CCCOCc1cc2c(s1)-c1cccc(Cl)c1Oc1ccccc1-2 [Example 6, [3-(9-chloro-8-oxa-1-thia-dibenzo[e,h]azulene-2-ylmethoxy)-propyl]-dimethyl-amine]",124 to 128,
"CN(C)CCOCc1cc2c(s1)-c1cccc(Cl)c1Oc1ccccc1-2 [Example 7, [2-(9-chloro-8-oxa-1-thia-dibenzo[e,h]azulene-2-ylmethoxy)-ethyl]-dimethyl-amine]",122,
"Cl.Fc1ccc2c(c1)-c1sc(COCCN3CCCCC3)cc1-c1ccccc1O2 [Example 19, 1-[2-(11-fluoro-8-oxa-1-thia-dibenzo[e,h]azulene-2-ylmethoxy)-ethyl]-piperidine hydrochloride]",,activity in at least two investigated tests
"CN(C)CCCOCc1cc2c(s1)-c1ccccc1Sc1ccccc1-2.Cl [Example 21, [3-(1,8-dithia-dibenzo[e,h]azulene-2-ylmethoxy)-propyl]-dimethylamine hydrochloride]",,activity in at least two investigated tests
